Laboratory results taken from US8796231B2, “Pest control composition” (Sumitomo Chemical Company, Limited, priority 2010, dated 2014).

What was measured:
[1] = system: Spodoptera litura; assay: Test Example 1: cabbage leaf immersion test, insecticidal rate on third-instar larvae; assay type: in vivo; conditions: cabbage leaf immersed 60 seconds, after 4 days, 3 replicates
Procedure: (§1) A suspension concentrate containing 10.0% by weight of etoxazole [product name: Baroque (registered trademark) flowable, manufactured by Kyoyu Agri Co., Ltd.] was diluted with water containing 0.02% by volume of a spreading agent [product name: Sindain (registered trademark), manufactured by Sumitomo Chemical Co., Ltd.] so that the concentration of etoxazole became 25 ppm.
(§2) A suspension concentrate containing 11.7% by weight of spinetoram (weight ratio of spinetoram J:spinetoram L=75:25) was diluted with water containing 0.02% by volume of a spreading agent [product name: Sindain (registered trademark), manufactured by Sumitomo Chemical Co., Ltd.] so that the concentration of spinetoram became 7.31 ppm.
(§3) The water dilution of spinetoram was mixed with an equal amount of the water dilution of etoxazole to prepare a test solution.
The water dilution of etoxazole and the water dilution of spinetoram were respectively diluted with an equal amount of water containing 0.02% by volume of the same spreading agent as mentioned above to prepare a 12.5 ppm water dilution of etoxazole and a 3.66 ppm water dilution of spinetoram.
A cabbage was planted in a pot (volume: 860 ml) and grown until the fourth leaf stage. The leaves of the cabbage were cut off one by one. […]
An insect death rate was calculated according to the following equation. […]

[2] = system: Panonychus citri; assay: Test Example 2: Satsuma mandarin orange leaf piece immersion test, insecticidal rate on female imagoes; assay type: in vivo; conditions: mandarin orange leaf piece immersed 60 seconds, after 6 days, 3 replicates
Procedure: as §1, with “1.56” for “25”
as §2, with “6.25” for “7.31”
as §3
The water dilution of etoxazole and the water dilution of spinetoram were respectively diluted with an equal amount of water containing 0.02% by volume of the same spreading agent as mentioned above to prepare a 0.78 ppm water dilution of etoxazole and a 3.13 ppm water dilution of spinetoram.
Leaves were taken from a cultivated Satsuma mandarin orange tree, and cut into 2-cm-square pieces. One of the pieces was immersed in the test solution for 60 seconds. […]
An insecticidal rate was calculated in the same manner as Test Example 1. […]

| Molecule | Insecticidal rate ([1]; 12.5 ppm active ingredient) | Insecticidal rate ([2]; 0.78 ppm active ingredient) | Insecticidal rate ([1]; 3.66 ppm active ingredient) | Insecticidal rate ([2]; 3.13 ppm active ingredient) |
| --- | --- | --- | --- | --- |
| CCOc1cc(C(C)(C)C)ccc1C1COC(c2c(F)cccc2F)=N1 (stereo not shown) [Etoxazole, 2-(2,6-difluorophenyl)-4-[4-(1,1-dimethylethyl)-2-ethoxyphenyl]-4,5-dihydrooxazole] | 26.7% | 7.7% | – | – |
| spinetoram | – | – | 43.3% | 23.1% |
